Test system: not given
Assay: not given
Conditions: not given

| melting point [°C] | SMILES |
| --- | --- |
| 137 | COC(=O)c1nc(-c2ccc(C(F)(F)F)nc2)c(F)c(N)c1Cl [Compound 59, methyl 4-amino-5-chloro-3-fluoro-6′-(trifluoromethyl)-[2,3′-bipyridine]-6-carboxylate] |

Test system: Key Grass and Sedge Weeds as well as Grass Crops
Assay: Post-Emergent Test II (Table 6)
Assay type: in vivo
Conditions: post-emergence, 336 h, CYPSS, 70 g ai/ha, 14 days after application, read-out: Visual Growth Reduction (%) 14 Days After Application CYPSS
How it was run: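 Visual injury ratings (0 = no injury, 100 = complete kill) were taken 14 days after treatment relative to untreated plants. Seedlings at the first or second true leaf stage received an overhead spray at 187 L/ha, and solvent-blank sprayed plants served as controls.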

| SMILES | pest or weed control at 70 g/ha [%] |
| --- | --- |
| COC(=O)c1nc(-c2ccc(C(F)(F)F)nc2)c(F)c(N)c1Cl [Compound 59, methyl 4-amino-5-chloro-3-fluoro-6′-(trifluoromethyl)-[2,3′-bipyridine]-6-carboxylate] | 95 to 100 |

Same assay, conditions: post-emergence, 336 h, CYPSS, 140 g ai/ha, 14 days after application, read-out: Visual Growth Reduction (%) 14 Days After Application CYPSS

| SMILES | pest or weed control at 140 g/ha [%] |
| --- | --- |
| COC(=O)c1nc(-c2ccc(C(F)(F)F)nc2)c(F)c(N)c1Cl [Compound 59, methyl 4-amino-5-chloro-3-fluoro-6′-(trifluoromethyl)-[2,3′-bipyridine]-6-carboxylate] | 95 to 100 |

Same assay, conditions: post-emergence, 336 h, DIGSA: crabgrass (Digitaria sanguinalis), 70 g ai/ha, 14 days after application, read-out: Visual Growth Reduction (%) 14 Days After Application DIGSA

| SMILES | pest or weed control at 70 g/ha [%] |
| --- | --- |
| COC(=O)c1nc(-c2ccc(C(F)(F)F)nc2)c(F)c(N)c1Cl [Compound 59, methyl 4-amino-5-chloro-3-fluoro-6′-(trifluoromethyl)-[2,3′-bipyridine]-6-carboxylate] | 75 to 84 |

Same assay, conditions: post-emergence, 336 h, DIGSA: crabgrass (Digitaria sanguinalis), 140 g ai/ha, 14 days after application, read-out: Visual Growth Reduction (%) 14 Days After Application DIGSA

| SMILES | pest or weed control at 140 g/ha [%] |
| --- | --- |
| COC(=O)c1nc(-c2ccc(C(F)(F)F)nc2)c(F)c(N)c1Cl [Compound 59, methyl 4-amino-5-chloro-3-fluoro-6′-(trifluoromethyl)-[2,3′-bipyridine]-6-carboxylate] | 85 to 94 |

Same assay, conditions: post-emergence, 336 h, ECHSS, 70 g ai/ha, 14 days after application, read-out: Visual Growth Reduction (%) 14 Days After Application ECHSS

| SMILES | pest or weed control at 70 g/ha [%] |
| --- | --- |
| COC(=O)c1nc(-c2ccc(C(F)(F)F)nc2)c(F)c(N)c1Cl [Compound 59, methyl 4-amino-5-chloro-3-fluoro-6′-(trifluoromethyl)-[2,3′-bipyridine]-6-carboxylate] | 85 to 94 |

Same assay, conditions: post-emergence, 336 h, ECHSS, 140 g ai/ha, 14 days after application, read-out: Visual Growth Reduction (%) 14 Days After Application ECHSS

| SMILES | pest or weed control at 140 g/ha [%] |
| --- | --- |
| COC(=O)c1nc(-c2ccc(C(F)(F)F)nc2)c(F)c(N)c1Cl [Compound 59, methyl 4-amino-5-chloro-3-fluoro-6′-(trifluoromethyl)-[2,3′-bipyridine]-6-carboxylate] | 85 to 94 |

Same assay, conditions: post-emergence, 336 h, ORYSS (crop), 70 g ai/ha, 14 days after application, read-out: Visual Growth Reduction (%) 14 Days After Application ORYSS

| SMILES | pest or weed control at 70 g/ha [%] |
| --- | --- |
| COC(=O)c1nc(-c2ccc(C(F)(F)F)nc2)c(F)c(N)c1Cl [Compound 59, methyl 4-amino-5-chloro-3-fluoro-6′-(trifluoromethyl)-[2,3′-bipyridine]-6-carboxylate] | 0 to 29 |

Same assay, conditions: post-emergence, 336 h, ORYSS (crop), 140 g ai/ha, 14 days after application, read-out: Visual Growth Reduction (%) 14 Days After Application ORYSS

| SMILES | pest or weed control at 140 g/ha [%] |
| --- | --- |
| COC(=O)c1nc(-c2ccc(C(F)(F)F)nc2)c(F)c(N)c1Cl [Compound 59, methyl 4-amino-5-chloro-3-fluoro-6′-(trifluoromethyl)-[2,3′-bipyridine]-6-carboxylate] | 0 to 29 |

Same assay, conditions: post-emergence, 336 h, SETFA: giant foxtail (Setaria faberi), 70 g ai/ha, 14 days after application, read-out: Visual Growth Reduction (%) 14 Days After Application SETFA

| SMILES | pest or weed control at 70 g/ha [%] |
| --- | --- |
| COC(=O)c1nc(-c2ccc(C(F)(F)F)nc2)c(F)c(N)c1Cl [Compound 59, methyl 4-amino-5-chloro-3-fluoro-6′-(trifluoromethyl)-[2,3′-bipyridine]-6-carboxylate] | 60 to 74 |

Same assay, conditions: post-emergence, 336 h, SETFA: giant foxtail (Setaria faberi), 140 g ai/ha, 14 days after application, read-out: Visual Growth Reduction (%) 14 Days After Application SETFA

| SMILES | pest or weed control at 140 g/ha [%] |
| --- | --- |
| COC(=O)c1nc(-c2ccc(C(F)(F)F)nc2)c(F)c(N)c1Cl [Compound 59, methyl 4-amino-5-chloro-3-fluoro-6′-(trifluoromethyl)-[2,3′-bipyridine]-6-carboxylate] | 75 to 84 |

Same assay, conditions: post-emergence, 336 h, SORVU: grain sorghum (Sorghum vulgare), 70 g ai/ha, 14 days after application, read-out: Visual Growth Reduction (%) 14 Days After Application SORVU

| SMILES | pest or weed control at 70 g/ha [%] |
| --- | --- |
| COC(=O)c1nc(-c2ccc(C(F)(F)F)nc2)c(F)c(N)c1Cl [Compound 59, methyl 4-amino-5-chloro-3-fluoro-6′-(trifluoromethyl)-[2,3′-bipyridine]-6-carboxylate] | 75 to 84 |

Same assay, conditions: post-emergence, 336 h, SORVU: grain sorghum (Sorghum vulgare), 140 g ai/ha, 14 days after application, read-out: Visual Growth Reduction (%) 14 Days After Application SORVU

| SMILES | pest or weed control at 140 g/ha [%] |
| --- | --- |
| COC(=O)c1nc(-c2ccc(C(F)(F)F)nc2)c(F)c(N)c1Cl [Compound 59, methyl 4-amino-5-chloro-3-fluoro-6′-(trifluoromethyl)-[2,3′-bipyridine]-6-carboxylate] | 85 to 94 |

Same assay, conditions: post-emergence, 336 h, TRZSS (crop), 70 g ai/ha, 14 days after application, read-out: Visual Growth Reduction (%) 14 Days After Application TRZSS

| SMILES | pest or weed control at 70 g/ha [%] |
| --- | --- |
| COC(=O)c1nc(-c2ccc(C(F)(F)F)nc2)c(F)c(N)c1Cl [Compound 59, methyl 4-amino-5-chloro-3-fluoro-6′-(trifluoromethyl)-[2,3′-bipyridine]-6-carboxylate] | 45 to 59 |

Same assay, conditions: post-emergence, 336 h, TRZSS (crop), 140 g ai/ha, 14 days after application, read-out: Visual Growth Reduction (%) 14 Days After Application TRZSS

| SMILES | pest or weed control at 140 g/ha [%] |
| --- | --- |
| COC(=O)c1nc(-c2ccc(C(F)(F)F)nc2)c(F)c(N)c1Cl [Compound 59, methyl 4-amino-5-chloro-3-fluoro-6′-(trifluoromethyl)-[2,3′-bipyridine]-6-carboxylate] | 45 to 59 |
